The data set is described as follows: in vivo. It is filed as in vivo, Sprague–Dawley rats. Conditions: for Detection in rat plasma after D7 administration: LC-MS/MS, sampling up to 24 h; for AUC / Cmax / MRT / Tmax / half-life / AUC(0-t) / CL/F / Vd/F: male, Sprague-Dawley, rat, in vivo; for Vd/F: read-out: Vz/F. The method, then: Male Sprague–Dawley rats (∼250 g) purchased from Sino-British Sippr/BK Lab Animal, Ltd. (Shanghai, China) were housed in air-conditioned animal quarters with alternating 12 h light/dark cycles at a room temperature of 22°C±2°C and a relative humidity of 50%±10%. Commercial rat chow and water were given ad libitum. The animal studies were approved by the Review Committee of Animal Care and Use at Longhua Hospital. The rats were fasted overnight (∼12 h) and had free access to water throughout the experimental period. Five rats were given a single oral dose of D7 at 4 mL/kg, which was designed based on the clinical dosage for human. Blood samples (∼150 µL) were collected via a jugular vein catheter from non-restrained, non-sedated animals into heparinized tubes before and at 0.083, 0.25, 0.5, 1, 2, 3, 4, 6, 8, 10, and 24 h after administration. After centrifugation at 4000×g for 10 min at 4°C, duplicates of 25 µL of the plasma samples were obtained and were immediately stored at −80°C until analysis. After the experiments, the rats were sacrificed with ether anesthesia.
For protein precipitation, 75 µL of MeOH were added to 25 µL of plasma samples. After vortexing for 2 min and centrifugation for 5 min at 13000×g at 4°C, 80 µL aliquots of the supernatant liquid were transferred into autosampler vials for LC-MS/MS analysis.
The LC-MS/MS system consisted of an Agilent HPLC 1200 series system and a CTC autosampler coupled with an API 4000 triple-quadrupole mass spectrometer equipped with a TurboIonSpray ion source. The LC-MS/MS system was controlled using the Analyst 1.4.2 software, which also acquired and processed the data.
LC separation was performed on a 5 µm Agel Luna C18 (50 mm×2.1 mm, i.d.) at room temperature with a 2 µm filter used before the analytical column. The LC mobile phase was H2O containing 0.1% formic acid (A) and MeOH (B) at a flow rate of 0.30 mL/min. A gradient elution program was used as following: 0→2.5 min, B% 60→90; 2.5→2.6 min, B% 90→60; and 2.6→4 min, B% 60→60. The injection volume was 10 µL and the temperature of the autosampler was set at 4°C to keep the samples stable during the analysis.
The tuning solutions (10 µg/mL) of the individual analytes were prepared by diluting the corresponding primary stock solutions with 50% MeOH. The tuning solutions were delivered at 5.0 µL/min using a syringe pump and combined through a PEEK tee-connector with the mobile phase delivered at 0.3 mL/min with the LC pump. The instrumental parameters of the MS spectrometers in positive ion ESI mode were optimized to achieve maximum ionization of the analyte molecules and the generation of characteristic fragment ions. […] The scan time for each pair was set to 50 ms. The operating parameters of the mass spectrometer included compound-dependent and source-dependent considerations. The optimized source-dependent parameters consisted of the flow rates of curtain gas, gas 1, gas 2, collision gas (CAD), capillary temperature (TEM), and ion spray voltage. The compound-dependent parameters for the test compounds included the declustering potential (DP), entrance potential (EP), collision energy (CE), and collision cell exit potential (CXP).
Standard curves, intra-batch accuracy, and precision for the quantification of the 15 compounds in the rat plasma samples were constructed similarly. The accuracy was measured as the difference between the nominal value and the measured value, expressed as a percentage of the nominal value. Precision was expressed as the coefficient of variation (CV), i.e., the standard deviation divided by the mean multiplied by 100.
The plasma concentration–time data for D7 were analyzed with the WinNonlin 5.2.1 software (Pharsight, Mountain View, CA, USA) using a non-compartmental model. The peak plasma concentration (C max) and the corresponding time (T max) were directly obtained from the concentration data.

Setting [1] is: SD rats, single oral D7 4 mL/kg.
[2] abbreviates: SD rats, single oral D7 4 mL/kg, plasma.
Setting [3] is: SD rats, single oral D7 4 mL/kg, plasma, non-compartmental, read-out: T1/2 (converted).
Setting [4] is: SD rats, single oral D7 4 mL/kg, plasma, read-out: AUC0–24 h.
The mark [5] stands for this setting: SD rats, single oral D7 4 mL/kg, read-out: CL/F (converted).

Where two headings read alike, the source gives them in different places.

The term AUC denotes the area under the concentration-time curve, a measure of exposure. Low values mean low exposure, high ones high exposure. The Cmax is the highest concentration seen after dosing. Usually MRT stands for a mean duration of stay, worked out from the concentration-time curve. Usually Tmax stands for the time at which the peak concentration occurs.

On to `CCN1CC2(COC)C(O)CC(OC)C34C5CC6(O)C(OC)C(O)C(O)(C5C6OC(=O)c5ccccc5)C(C(OC)C23)C14` (stereo not shown) [Benzoylaconitine, benzoylaconine], for which, under setting [1], the “Detection in rat plasma after D7 administration” value (“Detection in rat plasma” for short) is on record as “not detected”.

Turning to `COc1c2ccoc2cc2oc(=O)ccc12` [Bergapten, bergapten], under setting [1], the “Detection in rat plasma” value is recorded as “measureable” and the Vd/F worked out at 2.93 ± 1.57 L/kg. Under setting [2], this molecule yielded an AUMCall of 1270±958 h·h·ng/mL, an AUMClast of 924±716 h·h·ng/mL, an AUC of 158 ± 77.9 ng·h/mL and a Cmax of 20.5 ± 7.22 ng/mL. For the same molecule, under setting [2], the MRT was 5.65 ± 2.16 h and the Tmax was found to be 1 h. Also, under setting [3], the half-life is 248 ± 42 min. Besides, the AUC(0-t) under setting [4] came to 143 ± 73.2 ng·h/mL. Further, under setting [5], the CL/F was 8.07 mL/min/kg.

For the molecule `O=c1ccc2ccc3occc3c2o1` [Isopsoralen, isopsoralen], under setting [1], the “Detection in rat plasma” value was “measureable” and the Vd/F worked out at 0.308 ± 0.181 L/kg. Under setting [2], this molecule displayed an AUMCall of 168803±119110 h·h·ng/mL, an AUMClast of 150025±99963 h·h·ng/mL, an AUC of 21000 ± 12100 ng·h/mL and a Cmax of 2240 ± 824 ng/mL. In addition, under setting [2], the MRT amounted to 7.13 ± 0.66 h and the time to peak (Tmax) was 6 h. The half-life under setting [3] is 212 ± 61.8 min. For the same molecule, the AUC(0-t) under setting [4] was 20400 ± 11500 ng·h/mL. Also, the CL/F under setting [5] is 1.1 mL/min/kg.

Under setting [2], `O=c1ccc2cc3ccoc3cc2o1` [Psoralen, psoralen] had an AUMCall of 74305±51503 h·h·ng/mL, an AUMClast of 69918±49475 h·h·ng/mL, an AUC of 10200 ± 6000 ng·h/mL and a Cmax of 929 ± 431 ng/mL. Under setting [2], the MRT is 6.71 ± 0.79 h and the Tmax is 6 h. For the same molecule, the half-life under setting [3] is 191 ± 14.4 min. The AUC(0-t) under setting [4] was determined as 9980 ± 5960 ng·h/mL. Further, under setting [5], the CL/F was 1.39 mL/min/kg. Also, the Vd/F under setting [1] turned out to be 0.384 ± 0.227 L/kg.

On to `CC(C)=CCc1cc2c(cc1O)oc(=O)c1c3ccc(O)cc3oc21` [Psoralidin, psoralidin], for which, under setting [1], the “Detection in rat plasma” value was “measureable” and the Vd/F worked out at 5.87 ± 0.395 L/kg. Under setting [2], this molecule gave an AUMCall of 2240±462 h·h·ng/mL, an AUMClast of 329±44 h·h·ng/mL, an AUC of 64.5 ± 8.46 ng·h/mL and a Cmax of 2.57 ± 0.53 ng/mL. Under setting [2], the MRT stood at 10.3 ± 0.39 h and the Tmax stood at 0.5 h. The molecule further gave a T1/2 (SD rats, single oral D7 4 mL/kg, plasma, non-compartmental) of 23.7 ± 1.7 h. The half-life (po, SD rats, single oral D7 4 mL/kg, plasma, non-compartmental, read-out: T1/2 (converted)) was around 1440 min. Under “SD rats, single oral D7 4 mL/kg, plasma, read-out: AUClast”, the AUC(0-t) worked out at 31.9 ± 3.32 ng·h/mL. Under setting [5], the CL/F is 2.88 mL/min/kg.

Under setting [2], `COc1c2occc2cc2ccc(=O)oc12` [Xanthotoxin, xanthotoxin] came in with an AUMCall of 1445±719 h·h·ng/mL, an AUMClast of 667±270 h·h·ng/mL, an AUC of 209 ± 89.5 ng·h/mL and a Cmax of 31.7 ± 9.55 ng/mL. Also, under setting [2], the MRT was 4.06 ± 0.41 h and the Tmax was 1 h. Also, where the note is “po”, the CL/F is 9.6 mL/min/kg. The molecule further gave a half-life (po, T1/2) of 274 ± 42.6 min. Moreover, the AUC(0-t) under setting [4] stood at 162 ± 64.7 ng·h/mL. Moreover, under setting [1], the Vd/F came out at 3.69 ± 1.52 L/kg.

As for `CCN1C[C@]2(COC)[C@H](O)C[C@H](OC)[C@@]34[C@@H]5C[C@@]6(O)[C@H](OC(=O)c7ccccc7)[C@@H]5[C@@](OC(C)=O)([C@@H]([C@H](OC)[C@H]23)[C@@H]14)[C@@H](O)[C@@H]6OC` [aconitine], the “Detection in rat plasma” value under setting [1] is on record as “not detected”.

As for `COC[C@@]12CC[C@H](OC)[C@]34C(C([C@H](OC)[C@H]13)[C@]1(OC(C)=O)[C@H]3[C@@H](OC(=O)c5ccccc5)[C@](O)(C[C@H]34)[C@@H](OC)[C@@H]1O)N(C)C2` [hypaconitine], the “Detection in rat plasma” value under setting [1] was “not detected”.

On to `COCC12CN(C)C3C4C(OC)C1C3(C(OC)CC2O)C1CC2(O)C(OC)C(O)C4(OC(C)=O)C1C2OC(=O)c1ccccc1` (stereo not shown) [mesaconitine], for which the “Detection in rat plasma” value under setting [1] was “not detected”.

Values taken from PMC3585395, “Material Basis of Chinese Herbal Formulas Explored by Combining Pharmacokinetics with Network Pharmacology” (PLoS ONE, 2013).
